“Also recorded” adds a separate entry of the source.
Key:
Type in all cases: cell-based
[1] = target: T1, green fluorescent protein tagged-GR (GFP-GR) (Rattus norvegicus, UniProt P06536, C656G); test: GFP-GR system, biorecognition (nuclear translocation of GFP tagged GR); conditions: fluorescence microscopy, 37° C., Mce6 at 20 μM and 30 μM, images up to 30 minutes
T1 construct: expressed in transfected cells
T1 sequence (P06536 1-795 C656G): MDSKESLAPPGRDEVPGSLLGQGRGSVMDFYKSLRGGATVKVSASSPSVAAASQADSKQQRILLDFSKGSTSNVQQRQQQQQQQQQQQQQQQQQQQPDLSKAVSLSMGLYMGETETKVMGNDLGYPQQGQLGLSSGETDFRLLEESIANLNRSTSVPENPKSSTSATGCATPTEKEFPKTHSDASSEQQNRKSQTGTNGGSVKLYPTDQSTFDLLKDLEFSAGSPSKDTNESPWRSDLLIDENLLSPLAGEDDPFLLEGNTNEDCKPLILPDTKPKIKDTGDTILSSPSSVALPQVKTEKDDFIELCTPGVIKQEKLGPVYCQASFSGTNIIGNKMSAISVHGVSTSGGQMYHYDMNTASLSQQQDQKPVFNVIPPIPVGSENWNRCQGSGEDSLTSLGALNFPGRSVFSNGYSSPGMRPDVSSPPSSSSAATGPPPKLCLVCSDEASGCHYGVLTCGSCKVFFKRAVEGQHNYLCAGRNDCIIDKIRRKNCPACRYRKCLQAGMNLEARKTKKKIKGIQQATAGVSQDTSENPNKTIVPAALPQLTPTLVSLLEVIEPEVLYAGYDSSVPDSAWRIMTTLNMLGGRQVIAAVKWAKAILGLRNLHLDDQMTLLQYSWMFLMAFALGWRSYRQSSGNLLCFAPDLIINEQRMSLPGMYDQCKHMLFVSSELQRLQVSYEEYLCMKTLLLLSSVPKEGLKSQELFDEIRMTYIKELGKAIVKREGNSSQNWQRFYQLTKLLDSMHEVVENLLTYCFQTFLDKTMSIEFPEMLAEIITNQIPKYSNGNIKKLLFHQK
Procedure: This system involves the generation of GFP labeled GR in the cell. The cells are then treated with the drug and the change in the localization of the fluorescently tagged GR is followed. Cells were transfected with GFP-GR plasmids as previously. Briefly, 5×10^6 cells were transfected with 2 μg of the GFP-GR plasmid plus carrier DNA using an Electrosquare porator ECM 830 system (BTX, San Diego, Calif.). The electroporation was performed using 3 pulses each of 135 V for 10 milliseconds, […]. Cells were allowed to recover on ice for 5 minutes and were then diluted with phenol red-free DMEM with 10% charcoal stripped FBS and plated on a clear cover glass (Corning no. 1, 22 mm^2) into live cell chambers (Lab-Tek II chambered cover glass with cover). These cells were incubated in cell culture conditions for 24 hrs. […] The import of GFP-receptor-conjugate complexes was monitored using an Olympus IX701F inverted fluorescence microscope and an EGFP filter set (Chroma Technology Corp.) (exciter 480 nm, emitter 510 nm, beam splitter 495 nm). Cells were maintained at 37° C. using a Nevtek ASI 400 Air Stream Incubator (variable temperature control) attached to a temperature probe as previously. Cells were photographed using an F-View Monochrome CCD camera.

[2] = test system: murine adenocarcinoma (1471.1) cells; test: Cytotoxicity after illumination, WST-8 assay; conditions: incubated 4 hours, DMEM with 10% charcoal stripped FBS, illuminated 30 min, Mce6 equivalents, read-out: IC50 (μM) (Mean ± SD)
Procedure: The IC50 (concentration that inhibits growth by 50%) was determined utilizing a WST-8 assay. Four thousand cells were seeded into 96 well plates and incubated overnight in a humidified atmosphere containing 5% CO2. […] The incubation period was 10 hours in the case of the HPMA copolymer-bound Mce6 conjugates. After the period of incubation, the media containing the drug was removed and 100 μL of fresh media was added and the cells were promptly illuminated for 30 min. The light source was three ENH Tungsten halogen lamps (120 V/250 W) placed in parallel, attenuated by three band-pass interference filters (Melles Griot Co., Carlsbad, Calif.). The light energy was approximately 2 mW cm^−2 as determined using a radiometer.
After illumination, the cells were incubated in a humidified atmosphere containing 5% CO2 for 24 hours. The media was replaced with 100 μL fresh media containing 10 μL of WST-8. After two hours incubation, the absorbance was read at 450 nm with background correction at 630 nm. Untreated cells served as 100% viable cells, whereas media served as background. Percentage of viable cells was calculated by dividing the mean absorbance of each well by the absorbance of the untreated cells. Linear regression was performed utilizing the linear portion of the growth inhibition curve to determine the IC50 dose.

[3] = test system: nucleus (DAPI nuclear marker); test: Confocal fluorescence microscopy, subcellular localization; conditions: 24 hours incubation at 37° C.
Procedure: Subcellular localization was determined using confocal fluorescence microscopy. 150000 cells were seeded on previously sterilized glass coverslips in 35 mm dishes 24 hours before incubation with the drug. […] The cells were then fixed with 3% paraformaldehyde for 20 minutes at room temperature. DAPI (4′,6-diamidino-2-phenylindole) (600 nM) was incubated with the cells and used as a nuclear marker. The cells were mounted with SlowFade Light Antifade medium (Molecular Probes, Eugene, Oreg.) and sealed as described previously. The cells were then imaged on a Zeiss (Thornwood, N.Y.) LSM 510 confocal imaging system with an Axioplan 2 microscope (100× plan-apo objective, NA=1.4, oil) and a titanium sapphire multiphoton laser (mesochlorin, excitation 800 nm, emission 650 nm low pass filter; DAPI, excitation 800 nm, emission 461 nm band pass filter). The settings for all the confocal systems were adjusted so that control cells yielded dark images.
In these images, DAPI is represented by […] fluorescence. […] Mce6 is stained red in color. […] These two windows separately indicate the subcellular localization of Mce6 and DAPI respectively. These 2 windows are superimposed in window D to display a composite image.

GR = test: MMTV luciferase assay; conditions: data not shown
[4] = listed as Cort-Lys-Mce6 derivative

Substance	redistribution of GFP tagged GR from the cytoplasm to the nucleus ([1]; disodium salt)	IC50 [2] [µM]	subcellular localization of Mce6 fluorescence ([3]; disodium salt)	redistribution of GFP tagged GR from the cytoplasm to the nucleus [1]	redistribution of GFP tagged GR from the cytoplasm to the nucleus [1, 4]	subcellular localization of Mce6 fluorescence [3]	subcellular localization of Mce6 fluorescence [3, 4]	ability to bind the GR and induce nuclear translocation (GR)
Mesochlorin e6 monoethylene diamine disodium salt [Mce6, reference compound]	cannot cause redistribution of the GFP tagged GR; also recorded: did not induce any change in the localization of the receptors	5.3 ± 0.93	faint Mce6 fluorescence in the nucleus; also recorded: predominantly located in the cytoplasm					
alpha-N-(Cortisol-C17-carbamoyl)-Lysyl-Mesochlorin ethyl amide [Cort-Lys-Mce6]		1.96 ± 0.17		increase in the fluorescence level in the nucleus	able to shuttle GFP tagged GR from the cytoplasm to the nucleus	located in the cytoplasm and in the nucleus	colocalization of Mce6 and DAPI	independently verified

— patent US20070287680A1, “Combined Active and Passive Targeting of Biologically Active Agents” (University of Utah Research Foundation, priority 2004, published 2007)
